Patent US12083227B2, “Solid pharmaceutical formulations for treating endometriosis, uterine fibroids, polycystic ovary syndrome or adenomyosis” (priority 2017, dated 2024)

Tests used:
[1] = drug interaction studies: co-administered drug in the presence of elagolix
[2] = gel formation and pH of elagolix sodium solution; format: physicochemical
Protocol: 1.23 gram of elagolix sodium was added to 2 mL purified water in a test tube. […] To facilitate continued dissolution, the solution was stirred and the gel was dispersed continuously using a spatula. The solution pH was measured with undissolved solid present using a calibrated pH meter.

[3] = Ethinyl estradiol 35 mcg and triphasic norgestimate 0.18/0.215/0.25 mg once daily, elagolix 150 mg once daily, N 21
[4] = 0.5 mg single dose, elagolix 200 mg twice daily × 10 days, N 11
[5] = 2 mg single dose, elagolix 150 mg once daily × 13 days, N 11
[6] = 2 mg single dose, elagolix 300 mg twice daily × 11 days, N 20
[7] = 0.35 mg once daily × 112 days, elagolix 150 mg once daily × 56 days, N 32
[8] = 20 mg once daily, elagolix 300 mg twice daily × 7 days, N 10

For `C#C[C@]1(O)CC[C@H]2[C@@H]3CCC4=CC(=NO)CC[C@@H]4[C@H]3CC[C@@]21CC` (mixture of isomers) [Norelgestromin], the “AUC Ratio (with elagolix vs. medication alone)” value (“AUC Ratio” below) [1, 3] was 0.85 and the “Cmax Ratio (with elagolix vs. medication alone)” value (“Cmax Ratio” for short) [1, 3] was 0.87.
In the case of `C#CC1(O)CC[C@H]2[C@@H]3CCC4=CC(=O)CC[C@@H]4[C@H]3CC[C@@]21CC` (mixture of isomers) [Norgestrel], the “AUC Ratio” value [1, 3] is reported as 0.92 and the “Cmax Ratio” value [1, 3] is reported as 0.89.
With `C[C@H]1O[C@@H](O[C@H]2[C@@H](O)C[C@H](O[C@H]3[C@@H](O)C[C@H](O[C@H]4CC[C@@]5(C)[C@H](CC[C@@H]6[C@@H]5C[C@@H](O)[C@]5(C)[C@@H](C7=CC(=O)OC7)CC[C@]65O)C4)O[C@@H]3C)O[C@@H]2C)C[C@H](O)[C@@H]1O` [Digoxin] the “AUC Ratio” value [1, 4] was 1.26 and the “Cmax Ratio” value [1, 4] was 1.71.
For `C#C[C@]1(O)CC[C@H]2[C@@H]3CCc4cc(O)ccc4[C@H]3CC[C@@]21C` [Ethinyl Estradiol], the “AUC Ratio” value [1, 3] was 1.30 and the “Cmax Ratio” value [1, 3] was 1.15.
For `Cc1ncc2n1-c1ccc(Cl)cc1C(c1ccccc1F)=NC2` [Midazolam], the “AUC Ratio” value [1, 5] was 0.65, the “Cmax Ratio” value [1, 5] was 0.81 and the “AUC Ratio” value [1, 6] was 0.46. The “Cmax Ratio” value [1, 6] was 0.56.
For `C#C[C@]1(O)CC[C@H]2[C@@H]3CCC4=CC(=O)CC[C@@H]4[C@H]3CC[C@@]21C` [Norethindrone], the “AUC Ratio” value [1, 7] was 0.88 and the “Cmax Ratio” value [1, 7] was 0.95.
With `CC(C)c1nc(N(C)S(C)(=O)=O)nc(-c2ccc(F)cc2)c1/C=C/[C@@H](O)C[C@@H](O)CC(=O)O` [Rosuvastatin] the “AUC Ratio” value [1, 8] was 0.60 and the “Cmax Ratio” value [1, 8] was 0.99.
For `COc1cccc(-c2c(C)n(Cc3c(F)cccc3C(F)(F)F)c(=O)n(C[C@H](NCCCC(=O)[O-])c3ccccc3)c2=O)c1F.[Na+]` [elagolix sodium, sodium 4-((R)-2-[5-(2-fluoro-3-methoxy-phenyl)-3-(2-fluoro-6-trifluoromethyl-benzyl)-4-methyl-2,6-dioxo-3,6-dihydro-2H-pyrimidin-1-yl]-1-phenyl-ethylamino)butanoate], the “gel formation during dissolution” value ([2]; 1.23 gram added to 2 mL purified water) was “started to form gel” and the “pH value of the solution” value ([2]; 1.23 gram in 2 mL purified water, undissolved solid present, 20° C.) was 9.80.
